Test results taken from PubChem BioAssay (NCI).
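At the GI50, growth is halved. TGI is the concentration that stops growth completely.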

Experiments:
Experiment in all cases: NCI anticancer screen, dose series, 384-well format
[1] = system: A549 NSCLC
[2] = system: KM12 colon
[3] = system: NCI/ADR-RES ovarian
[4] = system: MALME-3M melanoma
[5] = system: SR leukemia
[6] = system: CCRF-CEM leukemia
[7] = system: NCI-H226 lung
[8] = system: OVCAR-4 ovarian
[9] = system: NCI-H460 NSCLC
[10] = system: HCT-116 colon
[11] = system: HCC-2998 colon
[12] = system: BT-549 breast
[13] = system: PC-3 prostate
[14] = system: SNB-19 CNS
[15] = system: MDA-MB-435 melanoma
[16] = system: K-562 leukemia
[17] = system: ACHN renal
[18] = system: UO-31 renal
[19] = system: SF-268 CNS
[20] = system: MDA-MB-231 breast
[21] = system: NCI-H322M lung
[22] = system: SK-MEL-5 melanoma
[23] = system: OVCAR-5 ovarian
[24] = system: IGROV1 ovarian
[25] = system: SK-OV-3 ovarian
[26] = system: T-47D breast
[27] = system: MCF7 breast
[28] = system: MDA-MB-468 breast
[29] = system: 786-0 renal

COc1cccc2c1C(=O)c1c(O)c3c(c(O)c1C2=O)C[C@@](O)(/C(CO)=N/NC(=O)CCCCCN1C(=O)C=CC1=O)C[C@@H]3O[C@H]1C[C@H](N)[C@H](O)[C@H](C)O1 gave a TGI [1] of 1.43 µM, a GI50 [2] of 0.116 µM and a TGI [2] of 0.295 µM. It also gave a GI50 [3] of 12.3 µM, a TGI [3] of 44.9 µM and a GI50 [4] of 0.152 µM. The TGI [4] was 0.403 µM, the TGI [5] was 0.0157 µM and the GI50 [6] was 0.0153 µM. The TGI [6] was 0.034 µM, the GI50 [7] was 0.122 µM and the TGI [7] was 0.288 µM. It also gave a GI50 [8] of 0.243 µM, a TGI [8] of 0.716 µM and a GI50 [9] of 0.0252 µM. For the same compound, the TGI [9] was 0.136 µM, the GI50 [10] was 0.0749 µM and the TGI [10] was 0.626 µM. For the same compound, the GI50 [11] was 0.123 µM, the TGI [11] was 0.294 µM and the GI50 [12] was 0.0599 µM. For the same compound, the TGI [12] was 0.271 µM, the GI50 [13] was 0.407 µM and the TGI [13] was 1.94 µM. It also gave a GI50 [14] of 0.127 µM, a TGI [14] of 0.553 µM and a GI50 [15] of 0.268 µM. It also gave a TGI [15] of 1.48 µM, a GI50 [16] of 0.114 µM and a TGI [16] of 1.06 µM. The GI50 [17] was 0.258 µM, the TGI [17] was 1.36 µM and the GI50 [18] was 1.26 µM. The TGI [18] was 3.13 µM, the GI50 [19] was 0.0714 µM and the TGI [19] was 0.372 µM. For the same compound, the GI50 [20] was 0.0625 µM, the TGI [20] was 0.206 µM and the GI50 [21] was 0.917 µM. For the same compound, the TGI [21] was 2.68 µM, the GI50 [22] was 0.124 µM and the TGI [22] was 0.328 µM. For the same compound, the GI50 [23] was 0.522 µM, the TGI [23] was 3 µM and the GI50 [24] was 0.346 µM. The TGI [24] was 2.48 µM, the GI50 [25] was 0.138 µM and the TGI [25] was 0.339 µM. For the same compound, the GI50 [26] was 0.0615 µM, the TGI [26] was 0.28 µM and the GI50 [27] was 0.0936 µM. For the same compound, the TGI [27] was 0.377 µM, the GI50 [28] was 0.0448 µM and the TGI [28] was 0.169 µM. It also gave a GI50 [29] of 0.11 µM and a TGI [29] of 0.368 µM.
